# Data from ChEMBL document CHEMBL1201862, “PubChem BioAssay data set” (2004).
# “And” between values parts separate entries of the source, which are not always exact repeats. Identical values can stand only once. The source made the active and inactive calls.
# Key:
# Cytochrome P450 2C19 = Cytochrome P450 2C19 (Homo sapiens, UniProt P33261); assay: Cytochrome panel assay with activity outcomes. Panel member name: p450-cyp2c19 Compounds with AC50 equal or less than 10 uM are considered active; assay type: functional
# Cytochrome P450 1A2 = biological target: T1, Cytochrome P450 1A2 (Homo sapiens, UniProt P05177);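 further: PubChem cytochrome P450 panel assay, CYP1A2 panel member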
# T1 sequence (P05177 whole entry): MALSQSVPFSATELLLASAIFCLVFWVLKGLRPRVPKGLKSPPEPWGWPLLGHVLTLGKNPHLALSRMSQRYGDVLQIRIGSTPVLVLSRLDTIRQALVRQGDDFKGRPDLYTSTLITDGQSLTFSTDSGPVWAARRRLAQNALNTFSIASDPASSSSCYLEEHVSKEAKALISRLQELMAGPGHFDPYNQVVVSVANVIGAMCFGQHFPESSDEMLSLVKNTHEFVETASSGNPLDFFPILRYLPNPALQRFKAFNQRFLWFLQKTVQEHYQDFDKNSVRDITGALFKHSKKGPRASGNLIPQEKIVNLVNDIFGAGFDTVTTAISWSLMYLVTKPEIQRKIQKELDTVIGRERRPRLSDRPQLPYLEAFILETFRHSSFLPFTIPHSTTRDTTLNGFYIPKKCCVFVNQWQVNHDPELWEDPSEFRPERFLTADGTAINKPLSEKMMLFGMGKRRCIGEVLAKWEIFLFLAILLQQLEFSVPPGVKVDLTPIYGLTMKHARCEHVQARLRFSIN
# [1] = biological target: T2, Rac GTPase-activating protein 1 (Homo sapiens, UniProt Q9H0H5); assay: MgcRacGAP GTPase-activating activity inhibitors, confirmation, biochemical, ADP Hunter fluorescence, primary and confirmatory (AID 624330); assay type: functional
# T2 sequence (Q9H0H5 whole entry): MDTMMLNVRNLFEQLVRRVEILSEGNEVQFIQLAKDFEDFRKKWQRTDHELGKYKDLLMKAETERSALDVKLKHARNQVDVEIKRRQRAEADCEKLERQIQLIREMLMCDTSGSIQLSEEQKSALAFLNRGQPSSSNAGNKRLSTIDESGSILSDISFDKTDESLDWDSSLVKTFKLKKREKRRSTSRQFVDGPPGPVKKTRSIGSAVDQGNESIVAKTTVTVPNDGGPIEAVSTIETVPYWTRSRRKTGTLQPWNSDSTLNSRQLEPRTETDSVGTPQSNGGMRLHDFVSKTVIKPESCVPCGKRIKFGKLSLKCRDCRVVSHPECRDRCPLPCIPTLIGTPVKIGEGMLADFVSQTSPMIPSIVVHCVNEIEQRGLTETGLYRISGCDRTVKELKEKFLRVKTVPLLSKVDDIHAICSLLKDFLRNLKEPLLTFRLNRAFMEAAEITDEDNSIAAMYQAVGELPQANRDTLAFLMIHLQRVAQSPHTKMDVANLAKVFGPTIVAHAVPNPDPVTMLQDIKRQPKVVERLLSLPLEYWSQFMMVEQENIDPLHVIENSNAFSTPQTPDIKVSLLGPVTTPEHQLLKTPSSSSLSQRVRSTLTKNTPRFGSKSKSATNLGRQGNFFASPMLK
# Cytochrome P450 2C9 = Cytochrome P450 2C9 (Homo sapiens, UniProt P11712)
# Cytochrome P450 3A4 = Cytochrome P450 3A4 (Homo sapiens, UniProt P08684);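 further: CYP3A4 tested as one member of a cytochrome P450 panel screen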
# [2] = system: Streptococcus sp. 'group A'; assay: growth inhibition of control SK(-) GAS strain, dose response, counter-screen for streptokinase expression inhibitor project, luminescence, kanamycin, BacTiterGlo, confirmation (AID 1900); assay type: functional, organism-based
# Streptokinase A = biological target: T3, Streptokinase A (Streptococcus pyogenes serotype M1, UniProt P10520); assay: S. pyogenes streptokinase expression inhibitors, potency, dose response, plasminogen activation absorbance, OD405 (AID 1914); assay type: functional, Streptococcus pyogenes M1 GAS;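 further: secreted streptokinase activity via plasminogen activation per viability signal from cell pellet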
# T3 sequence (P10520 whole entry): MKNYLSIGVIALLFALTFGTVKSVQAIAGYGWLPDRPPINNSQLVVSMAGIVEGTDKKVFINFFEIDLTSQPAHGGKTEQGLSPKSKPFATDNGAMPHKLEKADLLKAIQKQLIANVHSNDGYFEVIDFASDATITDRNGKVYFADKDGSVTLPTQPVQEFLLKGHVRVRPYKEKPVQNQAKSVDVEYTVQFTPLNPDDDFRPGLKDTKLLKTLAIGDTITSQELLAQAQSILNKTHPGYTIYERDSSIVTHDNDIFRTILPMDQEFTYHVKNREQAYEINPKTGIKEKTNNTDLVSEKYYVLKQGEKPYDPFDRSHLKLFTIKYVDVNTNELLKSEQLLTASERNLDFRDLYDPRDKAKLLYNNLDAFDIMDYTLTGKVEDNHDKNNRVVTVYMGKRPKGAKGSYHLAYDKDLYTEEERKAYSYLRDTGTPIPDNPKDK
# Streptococcus = assay: Group A Streptococcus viability loss, dose response, counter-screen for streptokinase expression inhibitor project, luminescence, BacTiterGlo (AID 1915); assay type: functional, organism-based;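 further: potency for reduction of bacterial viability or growth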
# Cytochrome P450 2C19, sequence (P33261 whole entry): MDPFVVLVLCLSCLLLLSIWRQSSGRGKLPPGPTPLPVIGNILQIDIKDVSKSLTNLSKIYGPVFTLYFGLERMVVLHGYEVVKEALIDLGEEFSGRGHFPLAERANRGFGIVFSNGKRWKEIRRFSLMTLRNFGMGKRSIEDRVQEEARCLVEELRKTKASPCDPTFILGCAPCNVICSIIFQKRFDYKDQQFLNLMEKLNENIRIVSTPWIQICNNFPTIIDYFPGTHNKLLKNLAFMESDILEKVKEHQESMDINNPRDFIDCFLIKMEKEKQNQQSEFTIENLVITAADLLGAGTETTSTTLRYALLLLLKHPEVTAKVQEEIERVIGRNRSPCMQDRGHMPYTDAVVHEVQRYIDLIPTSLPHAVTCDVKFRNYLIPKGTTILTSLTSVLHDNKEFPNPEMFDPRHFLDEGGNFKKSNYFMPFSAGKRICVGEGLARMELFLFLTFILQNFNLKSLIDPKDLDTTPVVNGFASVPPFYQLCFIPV
# Cytochrome P450 2C9, sequence (P11712 whole entry): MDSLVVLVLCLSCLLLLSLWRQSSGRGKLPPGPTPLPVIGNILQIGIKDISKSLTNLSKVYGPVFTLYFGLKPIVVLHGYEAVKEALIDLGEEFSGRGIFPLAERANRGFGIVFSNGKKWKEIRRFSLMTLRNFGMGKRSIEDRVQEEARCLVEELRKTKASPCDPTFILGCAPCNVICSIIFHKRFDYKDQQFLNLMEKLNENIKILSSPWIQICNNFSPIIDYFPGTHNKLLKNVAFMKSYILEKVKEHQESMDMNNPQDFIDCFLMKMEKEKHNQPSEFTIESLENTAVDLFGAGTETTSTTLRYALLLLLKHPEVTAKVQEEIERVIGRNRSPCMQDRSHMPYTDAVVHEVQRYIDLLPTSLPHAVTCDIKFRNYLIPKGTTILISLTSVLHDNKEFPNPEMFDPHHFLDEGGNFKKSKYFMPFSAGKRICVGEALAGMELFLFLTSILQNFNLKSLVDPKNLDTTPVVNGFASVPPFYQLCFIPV
# Cytochrome P450 3A4, sequence (P08684 whole entry): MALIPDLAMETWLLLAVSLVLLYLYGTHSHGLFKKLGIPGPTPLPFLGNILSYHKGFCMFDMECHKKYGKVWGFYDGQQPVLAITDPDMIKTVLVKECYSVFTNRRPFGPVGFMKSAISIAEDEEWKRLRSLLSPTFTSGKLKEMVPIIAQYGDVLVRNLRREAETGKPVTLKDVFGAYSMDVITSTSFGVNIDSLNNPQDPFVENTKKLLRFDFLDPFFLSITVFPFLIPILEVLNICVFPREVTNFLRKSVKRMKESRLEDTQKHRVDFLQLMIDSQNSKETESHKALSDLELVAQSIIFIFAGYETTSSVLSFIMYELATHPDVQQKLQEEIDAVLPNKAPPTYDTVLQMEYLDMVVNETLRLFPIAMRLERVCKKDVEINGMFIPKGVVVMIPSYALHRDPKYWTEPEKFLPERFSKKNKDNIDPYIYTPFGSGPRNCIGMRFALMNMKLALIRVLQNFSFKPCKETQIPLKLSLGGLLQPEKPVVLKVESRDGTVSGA
smiles,measurement,setting,value
O=S(=O)(c1cccc2cnccc12)N1CCNCC1,AC50,Cytochrome P450 2C19; read-out: AC50,10 µM (inconclusive)
same,AC50,Cytochrome P450 1A2,39.8 µM (inconclusive)
COc1cc(CN2CCN(c3ccccc3F)CC2)cc(OC)c1O,IC50,[1],143 µM (active)
O=C(O)c1c2c(nc3ccccc13)/C(=C/c1ccc(O)cc1)CCC2,IC50,[1],46.6 µM (active)
CCOC(=O)CC(NC(=O)c1ccco1)c1ccc(OC)cc1 (configuration not stated),AC50,Cytochrome P450 2C9,15.8 µM (inconclusive)
same,AC50,Cytochrome P450 1A2,25.1 µM (inconclusive)
CC(C)(C)OC(=O)N1CCCC1C(=O)NCCc1ccccc1 (configuration not stated),AC50,Cytochrome P450 3A4,25.1 µM (inconclusive)
CNC[C@@H](SC)c1ccc(O)c(O)c1,AC50,Cytochrome P450 1A2,6.31 µM (inconclusive)
O=C(Nc1ccc(Br)cc1C(=O)O)c1ccc2c(c1)C(=O)N(Cc1ccccc1)C2=O,EC50,[2],0.589 µM (active)
same,EC50,Streptokinase A,17.5 µM (inconclusive)
same,EC50,Streptococcus,18.3 µM (active)
N#Cc1cccc(NC(=O)N2CCCC3(CCN(C(=O)c4ccco4)CC3)C2)c1,AC50,Cytochrome P450 1A2,15.8 µM (inconclusive)
CN(Cc1ccccc1)Cn1ccnc1,AC50,Cytochrome P450 3A4,3.98 µM (inconclusive)
CCOc1ccc(NC(=S)NC(=O)/C=C/c2ccc(OC)c(OC)c2)c([N+](=O)[O-])c1,AC50,Cytochrome P450 2C9,14.1 µM (inconclusive)
same,AC50,Cytochrome P450 1A2,15.8 µM (inconclusive)
Cc1ccccc1NC1=C(C(=O)c2ccccc2)N(C)S(=O)(=O)c2ccccc21,AC50,Cytochrome P450 3A4,3.16 µM (inconclusive)
Cc1ccccc1CN1CCCN(Cc2ccc(Cl)cc2)S1(=O)=O,EC50,[2],10.1 µM (active)
same,EC50,Streptokinase A,23.3 µM (active)
same,EC50,Streptococcus,> 150 µM (not active)
CCOC(=O)c1c(C)[nH]c(C(=O)OCC(=O)NC2CCS(=O)(=O)C2)c1C (configuration not stated),AC50,Cytochrome P450 2C19,inconclusive
same,AC50,Cytochrome P450 2C9,31.6 µM (inconclusive)
CCOC(=O)c1c(CN(C)C)n(-c2ccc(C)cc2)c2cc(Br)c(O)cc12,EC50,[2],8.71 µM (active)
same,EC50,Streptokinase A,21.9 µM (active)
same,EC50,Streptococcus,> 150 µM (not active)
N#C/C(=C(\O)C(=O)O)c1ccc(-c2cccc3ccccc23)cc1,AC50,Cytochrome P450 2C19,inconclusive
same,AC50,Cytochrome P450 2C9,3.16 µM (inconclusive)
O=C(c1ccccc1)c1ccc2n1CC[C@H]2C(=O)O,AC50,Cytochrome P450 1A2,25.1 µM (inconclusive) and 15.8 µM (inconclusive)
c1ccc(-c2nnc3n2NC(c2ccc4c(c2)OCO4)S3)cc1 (configuration not stated),IC50,[1],153 µM (active)
COc1cccc(Cn2c(=O)c(CCc3ccccc3)nc3cnc(OC)nc32)c1,AC50,Cytochrome P450 1A2,12.6 µM (inconclusive)
COc1cccc([C@H](O)Cn2cc(-c3cccc(CON=C(C)C)c3)nn2)c1,AC50,Cytochrome P450 3A4,3.98 µM (inconclusive)
O=[N+]([O-])c1cccc(/C=N/Nc2cc(Cl)nc(-c3ccccc3)n2)c1,AC50,Cytochrome P450 3A4,17.8 µM (inconclusive)
CC(C)CN1CCCC2(CCN(C(=O)c3csnn3)CC2)C1,AC50,Cytochrome P450 3A4,31.6 µM (inconclusive)
O=C(CSc1nnc(CNC(=O)c2ccc(F)cc2)o1)NCc1ccccc1Cl,EC50,[2],> 150 µM (not active)
same,EC50,Streptokinase A,> 150 µM (not active)
same,EC50,Streptococcus,> 150 µM (not active)
COc1cc2c(cc1OC)[C@@]13CCN4C=C5CCO[C@H]6CC(=O)N2[C@@H]1[C@@H]6[C@H]5C[C@H]43,AC50,Cytochrome P450 1A2,5.01 µM (inconclusive)
COc1ccc(C2=NOC(C(=O)Nc3ccc(C(C)=O)cc3)C2)cc1OC (configuration not stated),AC50,Cytochrome P450 2C19; read-out: AC50,22.4 µM (inconclusive)
same,AC50,Cytochrome P450 2C9,11.2 µM (inconclusive)
same,AC50,Cytochrome P450 1A2,6.31 µM (inconclusive)
COc1ccc(NC(=O)Cn2nnc(C(=O)NCc3cccs3)c2N)cc1Cl,EC50,[2],67.2 µM (active)
same,EC50,Streptokinase A,> 150 µM (not active)
same,EC50,Streptococcus,> 150 µM (not active)
O=C(Nc1ccc(F)cc1F)c1cccn1-c1ncc(C(F)(F)F)cc1Cl,AC50,Cytochrome P450 2C9,39.8 µM (inconclusive)
same,AC50,Cytochrome P450 1A2,14.1 µM (inconclusive)
same,AC50,Cytochrome P450 3A4,28.2 µM (inconclusive)
Cc1c(C(=O)O)oc2ccc(S(=O)(=O)NCc3ccc4c(c3)OCO4)cc12,AC50,Cytochrome P450 2C9,3.55 µM (inconclusive)
same,AC50,Cytochrome P450 1A2,14.1 µM (inconclusive)
